Where two headings read alike, the source gives them in different places.
Assays:
[1] = Plasma pharmacokinetics after a single dose of liquid or solid oat product (compartmental PK model); format: in vivo, humans; design: V/F: unit not given here; conditions: for Cmax / half-life / k el / Tmax: both sexes, oral; for Cmax / half-life / k el: human, plasma; for Cmax / half-life / k el / Tmax / ka / V/F / T1/2: single dose; for k el: elimination rate (Table 2), read-out: ke (converted); for Tmax: human plasma, derived from PK model; for V, population estimate (RSE%) / ka, population estimate (RSE%) / ke, population estimate (RSE%): Table S1 compartmental model; for ka: absorption rate (Table 2); for V/F: distribution volume over bioavailability
Source text: A non-blinded, randomized two-way crossover study with two different oat products (solid or liquid) was designed to investigate the AVA and AVE PK after a single dose and after repeated dosing at three different doses, for respective food (Fig. 2). Since this is the first study of its kind, it is impossible to make any formal calculation of the number of subjects needed to show meaningful differences in plasma biomarker concentrations, since the variation is unknown. However, similar studies aimed for BFI discovery and validation of dose-response have typically used 5–30 subjects. We therefore considered 23 individuals as a good compromise between feasibility and possibilities to assess variation in biomarker concentrations, estimate pharmacokinetic parameters, dose response and performing modelling with good precision. A scientist not involved in the study, conducted the randomization using the RAR method (RandomizeR package) in R software environment and provided lists with allocated treatment sequences. The study was conducted in two phases. In the first phase, blood samples were drawn from 11 men and 12 women for 24 h after consumption of a single dose of either a solid or a liquid oat product on-site. Breakfast and lunch were also provided on-site. A single dose of solid (62 g of oat flakes) or liquid (196 mL of oat drink) containing individual AVAs and AVEs shown in Table 1 were consumed, respectively. Blood plasma samples were drawn for 24 h (0 h, 0.25 h, 0.5 h, 0.75 h, 1 h, 1.5 h, 2 h, 3 h, 4 h, 5 h, 6 h, 7 h, 8 h, 24 h). After the 24 h, at the second phase of the study, the corresponding product was further consumed three times per day for four days at either a low, medium, or high intake dose (98, 196 and 392 mL for liquid oats and 31, 62 and 123 g for oat flakes with corresponding contents of AVAs and AVEs (Table 1) in a Latin square design. Therefore, a total number of 8 participants (2 males and 6 females) were randomized to the low dose, 9 participants (3 males and 6 females) for medium dose and 6 participants (3males and 3 females) for the high dose. Participants consumed the provided products at home and were instructed to follow their habitual diets with restriction on the consumption of oat products. A list of relevant foods was provided as a guide. The oat flakes were pre-portioned into individual bags and could be consumed without heating, mixed with yoghurt, cottage cheese, sour milk or any liquid. Participants were instructed to consume the full amount, including the liquid or food the oats were mixed with. Liquid oat products were weighed prior consumption, and they were to be consumed without any additional food. In all cases the time of oat intake was recorded in a food journal. On the fifth day of phase II, a fasting sample was drawn. Fecal samples were collected at baseline and at the end of phase II of the intervention. Between each study period, there was a wash-out period of eight days where participants consumed their habitual diet. After the washout, participants started with a single dose and repeated dosing for the other product in the same way as for the first. The participants were instructed to avoid foods containing oats during the last three days prior to the start of the study and during the last three days of the wash-out period. Compliance was assessed based on information provided in a compliance journal during the study weeks as well as through 2-day food records. The oat products used in the study were provided to the participants. The flakes for the single dose were consumed with water ad lib and for the repeated dose they could be mixed with water, yoghurt, milk, sour milk or cottage cheese with the condition that all the amount of the oat product is consumed. The oat drink was consumed without any other product.
All blood samples were collected into EDTA-coated tubes by a trained nurse. […]

[2] = PK-model estimation of oat product dose and dosing interval needed to reach plasma concentration above LLOQ; design: species or system humans; conditions: for estimated volume of liquid oats resulting in plasma concentration above LLOQ: consumption interval every 4 h; for estimated intake volume of liquid oats needed for plasma concentration above LLOQ: intake every 8 h
Procedure: A compartmental model with two absorption compartments and a plasma compartment with linear elimination for each molecule separately described better the experimental data from the single dose intake compared to a compartmental model of a single absorption compartment (Figure S3). Parameter estimation was performed using the non-linear mixed-effects approach with lognormal inter-individual variability in all three model parameters: distribution volume over bioavailability ( [drawing 1] ), absorption rate ( [drawing 2] ), elimination rate ( [drawing 3] ), (R package nlmixr2 [34]). The results were reported as population means with coefficient of variation (Table S1). The area under the curve (AUC) and Cmax were normalized (AUCnorm) for the nmol intake of each molecule. Statistical analysis was conducted with R software environment. The compounds were compared for their PK parameters within the same product and between products using repeated ANOVA approach (lme4 package) and then by pairwise comparison adjusted for post hoc Tukey-Kramer honestly significant difference. All statistical analyses were performed on log- transformed data. Based on the PK models built on the single-dose data, a linear relationship ( [drawing 4] was derived between dose and dosing interval (intake frequency, [drawing 5] ) to estimate the AVA intake needed to reach an average concentration (at steady state) that is measurable above lower limit of quantification (LLOQ). To translate the intake of AVAs from the linear relationship (Dose) to corresponding oat flake product intake, we estimated the content of AVAs in different products using reported data from the literature and assigned values, where possible. For the flakes, information in literature was available for AVA 2c, AVA 2p and AVA 2 f. Therefore, an average value for these compounds per food product was assigned while for the oat drink and for the less known AVAs; AVA 2pd and AVA 2fd, an average value based on the measured products in our laboratory was used (Table S2). In the second phase of the intervention, following a repeated dosing period of 4 days, plasma concentrations were determined over a dosing interval recorded by the individuals and were compared to their corresponding predicted values in blood. This comparison allowed for an assessment of the model’s accuracy in predicting AVAs’ behavior under repeated dosing conditions. Only experimental data above the limit of quantification were used for the comparison. Further, the data were tested for outliers with the interquartile range (IQR) approach and five observations were considered outliers and were removed.

[3] = design: method as in PMID 30977921; conditions: cited from earlier work
[4] = 62 g of oat flakes, solid oat product (62 g oat flakes)
[5] = 196 mL of oat drink, liquid oat product (196 mL oat drink)
[6] = control samples (digestion without proteins)
[7] = in the presence of whey protein

Row | Cmax ([1]; 62 g of oat flakes, solid) | half-life ([1]; 62 g of oat flakes, solid) | k el ([1]; 62 g of oat flakes, solid) | Cmax ([1]; 196 mL of oat drink, liquid) | half-life ([1]; 196 mL of oat drink, liquid) | k el ([1]; 196 mL of oat drink, liquid) | Tmax [1, 4] | Tmax [1, 5] | V, population estimate (RSE%) ([1]; liquid) | ka, population estimate (RSE%) ([1]; liquid) | ke, population estimate (RSE%) ([1]; liquid) | ka ([1]; liquid) | V/F ([1]; liquid) | V, population estimate (RSE%) ([1]; solid) | ka, population estimate (RSE%) ([1]; solid) | ke, population estimate (RSE%) ([1]; solid) | ka ([1]; solid) | V/F ([1]; solid) | estimated volume of liquid oats resulting in plasma concentration above LLOQ [2] | estimated intake volume of liquid oats needed for plasma concentration above LLOQ [2] | SMILES | also measured
1 | 4.91 ± 0.52 nM | 2.13 ± 0.16 h | 9.17e-05 s⁻¹ | 1.16 ± 0.12 nM | 1.58 ± 0.12 h | 0.000122 s⁻¹ | 1.37 ± 0.06 h | 0.73 ± 0.03 h | 500 (19) L | 5.9 (18) 1/h | 0.43 (17) 1/h | 6.0 ± 0.3^1 1/h | 430 ± 42^2 | 720 (22) L | 2.8 (10) 1/h | 0.31 (17) 1/h | 2.8 ± 0.16 h⁻¹ | 698 ± 71 | about 30 mL | 65 mL | O=C(/C=C/c1ccc(O)c(O)c1)Nc1ccc(O)cc1C(=O)O [AVA 2c] | bioaccessibility, times lower compared to AVA 2f [3, 6]: 3.9 times; bioaccessibility, times lower compared to AVA 2p [3, 6]: 4.6 times; bioaccessibility, times increase [3, 7]: 3.6 times
2 | 2.1 ± 0.22 nM | 2.28 ± 0.18 h | 8.33e-05 s⁻¹ | 0.69 ± 0.07 nM | 3.2 h | 6.11e-05 s⁻¹ | 1.11 ± 0.05 h | 0.98 ± 0.04 h | 1600 (34) L | 4.8 (3) 1/h | – | 5.0 ± 0.3^2 1/h | 1641 ± 168^2 | 2600 (5) L | 3.8 (26) 1/h | – | 3.8 ± 0.21 h⁻¹ | 2561 ± 262 | – | – | COc1cc(/C=C/C(=O)Nc2ccc(O)cc2C(=O)O)ccc1O [AVA 2f] | T1/2 ([1]; liquid): 3.19 ± 0.25^2 h; average amount of oat flakes needed to reach measurable plasma levels (above LLOQ) ([2]; oat flakes consumed every 4 h): 235 g; amount of oat flakes needed to reach measurable plasma levels (above LLOQ) ([2]; oat flakes consumed every 8 h): 470 g; change of bioaccessibility [3, 7]: slight increase
3 | 20 ± 2.12 nM | 1.42 ± 0.11 h | 0.000136 s⁻¹ | 4.94 ± 0.5 nM | 1.3 h | 0.000144 s⁻¹ | 1.91 ± 0.08 h | 1.21 ± 0.05 h | 113 (16) L | 2.8 (9) 1/h | 0.52 (10) 1/h | 2.8 ± 0.2^1 1/h | 111 ± 11^1 | 220 (22) L | 1.6 (10) 1/h | 0.44 (17) 1/h | 1.50 ± 0.08 h⁻¹ | 250 ± 26 | about 30 mL | 65 mL | O=C(/C=C/c1ccc(O)cc1)Nc1ccc(O)cc1C(=O)O [AVA 2p] | T1/2 ([1]; liquid): 1.33 ± 0.10 h; change of bioaccessibility [3, 7]: slight increase

Reference: PMC12418703, “Avenanthramides and avenacosides as biomarkers of oat intake: a pharmacokinetic study of solid and liquid oat consumption under single and repeated dose conditions” (Nutrition Journal, 2025)
